Experimental data as given in patent US10245255B2, “Compositions and methods for the treatment of obesity and related disorders” (THE REGENTS OF THE UNIVERSITY OF MICHIGAN, priority 2011, dated 2019).

What was measured:
Type in all cases: in vivo, C57BL/6 mice
[1] = High fat diet prevention group: oral glucose tolerance test; conditions: 25 mg/kg for 8 weeks concurrently with high fat diet
Procedure: (§1) Wild type male C57BL/6 mice were fed a high fat diet consisting of 45% of calories from fat (D12451 Research Diets Inc., New Brunswick, N.J.) starting at 8 weeks of age for 12-24 weeks, while normal diet C57BL/6 controls were maintained on normal chow diet consisting of 4.5% fat (5002 Lab Diet, Philadelphia, Pa.). Diets containing ω-3 fatty acids were fed as previously described 24. Rosiglitazone treatment was administered for three weeks by addition of the compound to the diet in mice that had been on HFD for 16 weeks. Each mouse consumed on average 3.5 mg/kg rosiglitazone per day. Amlexanox was administered by daily oral gavage. […] Animals were housed in a specific pathogen-free facility with a 12-hour light/12-hour dark cycle and given free access to food and water. All animal use was in compliance with the Institute of Laboratory Animal Research Guide for the Care and Use of Laboratory Animals and approved by the University Committee on Use and Care of Animals at the University of Michigan and UCSD.
For glucose tolerance tests, after a six-hour fast mice were orally gavaged with glucose at a dose of 1.5 g/kg (C57BL/6 mice) or 1.2 g/kg (ob/ob mice). […] Blood glucose was measured at basal, 15, 30, 45, 60, 90, 120 and 180 minutes from tail blood using the One Touch Ultra glucometer (Lifescan, Milpitas, Calif.).

[2] = Diet-induced obese mice: liver weight, triglyceride, glycogen, histology
Procedure: as §1
Liver lipids were isolated as previously described (Norris et. Al. 2003) and the triglyceride levels were measured by Triglyceride Reagent kit.
Determination of glycogen in liver was performed as follows. Briefly, liver tissue was digested in a 30% potassium hydroxide solution, and then glycogen was precipitated using ethanol. After three washes to remove any traces of glucose, glycogen was digested by addition of amyloglucosidase. Released glucose was quantified using a colorimetric kit (Wako, Richmond, Va.).
Tissues were fixed in formalin for 3 days. Histology was performed by the University of Michigan Cancer Center Research Histology Laboratory.

[3] = Established diet-induced obesity treatment group: body weight, food intake, body composition
Procedure: as §1
The remaining weight of food provided was determined daily for singly housed mice. Daily food consumption was calculated from a three-day average.

[4] = diet induced obese mice, 25 mg/kg for 8 weeks

For `CC(C)c1ccc2oc3nc(N)c(C(=O)O)cc3c(=O)c2c1` [amlexanox, 2-amino-7-isopropyl-5-oxo-5H-chromeno[2,3-b]pyridine-3-carboxylic acid], the “reduction in the area under the curve for glucose (oral glucose tolerance)” value [1] was 30-40%, the “reductions in hepatic lipids after mice were taken off drug” value ([2]; continued on high fat diet, stained tissue sections) was “reversed” and the “large lipid droplets in liver (H & E staining)” value [2, 4] was “largely disseminated”. The “reduction in liver weight” value [2, 4] was “greater than 20%”, the hepatic glycogen levels ([2]; diet induced obese mice, 25 mg/kg for 8 weeks, vs control HFD mice) was “lower” and the “reduction of triglyceride content in liver” value ([2]; diet induced obese mice, 25 mg/kg for 8 weeks, vs vehicle) was “more than 50%”. The weight loss ([3]; 25 mg/kg after 12 weeks of 45% high-fat diet, after 4 weeks of treatment) was 10 g, the “reduction in overall mass of adipose tissue” value ([3]; 25 mg/kg, HFD, treatment phase) was over 6 gram and the “time to return to control weights after treatment was stopped” value ([3]; withdrawal after 8 weeks of 25 mg/kg treatment, HFD) was 6-8 weeks.
